molecular target: T1, human GnRH receptor (Homo sapiens, UniProt P30968); assay: Peptide competition radioligand binding displacement assay, human GnRH receptor membranes; details: one or more of the peptide competition human receptor binding assays
T1 construct: expressed in transfected cells; host or cells: RBL cells, stably transfected (in general)
T1 sequence (P30968 1-328): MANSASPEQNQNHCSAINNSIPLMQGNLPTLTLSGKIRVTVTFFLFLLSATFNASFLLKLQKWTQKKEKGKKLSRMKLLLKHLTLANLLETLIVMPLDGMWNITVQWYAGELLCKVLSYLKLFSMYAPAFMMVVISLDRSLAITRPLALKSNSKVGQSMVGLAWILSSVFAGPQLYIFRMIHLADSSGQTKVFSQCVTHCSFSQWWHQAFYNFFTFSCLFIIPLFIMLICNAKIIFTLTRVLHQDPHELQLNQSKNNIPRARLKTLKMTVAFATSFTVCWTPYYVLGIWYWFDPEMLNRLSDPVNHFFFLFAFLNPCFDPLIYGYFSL
Summary of the method: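 Membranes for radioligand binding were prepared from RBL cells stably expressing human GnRH receptor, which were lysed by nitrogen cavitation at 900 psi, 4° C. Membranes from HEK293 cells stably transfected with human receptor were held in 10 mM HEPES pH 7.5, 150 mM NaCl, 0.1% BSA. Transiently transfected COS-7 cells were used for other species.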

Ki, ≤ 100 nM:
COc1cccc(C)c1N(C)C(=O)c1cc(-c2cnc(C(F)(F)F)cc2C#N)c(Cl)cc1OCCC(=O)O [22-10]
COc1ccccc1N(C)C(=O)c1ccc(Cl)c(-c2cnc(C(F)(F)F)cc2C#N)c1 [2-14]
COc1ccccc1N(C)C(=O)c1ccc(Cl)c(-c2cnc(C(F)(F)F)cc2C)c1 [2-12]
COC(=O)c1ccccc1N(C)C(=O)c1ccc(Cl)c(-c2ncc(C(F)(F)F)cc2Cl)c1 [2-75]
Cc1cc(Cl)c(-c2cc(C(=O)N(C)c3cccc(C(F)(F)F)c3C)ccc2Cl)c(C)n1 [2-25]
COc1cc(F)ccc1N(C)C(=O)c1cc(-c2cnc(C(F)(F)F)cc2C#N)c(Cl)cc1OCCCC(=O)O [34-4]
Cc1cccc(C)c1N(C)C(=O)c1ccc(Cl)c(-c2ncc(C(F)(F)F)cc2Cl)c1 [2-65]
COc1ccccc1N(C)C(=O)c1cc(-c2cnc(C(F)(F)F)cc2C#N)c(Cl)cc1OCCCC(=O)OCOC(=O)C(C)(C)C [36-2, 4-{5-chloro-4-(4-cyano-6-trifluoromethyl-pyridin-3-yl)-2-[(2-methoxy-phenyl)-methyl-carbamoyl]-phenoxy}-butyric acid 2,2-dimethyl-propionyloxymethyl ester]
Cc1ccccc1N(C)C(=O)c1cc(-c2cnc(C(F)(F)F)cc2C#N)c(Cl)cc1OCCCC(=O)O [20-1, 4-[5-Chloro-4-(4-cyano-6-trifluoromethyl-pyridin-3-yl)-2-(methyl-o-tolyl-carbamoyl)-phenoxy]-butyric acid]
Cc1cc(Cl)ncc1-c1cc(C(=O)N(C)c2ccccc2OCCC(=O)O)ccc1Cl [11-2]
Cc1cc(C#N)ncc1-c1cc(C(=O)N(C)c2ccccc2CCCC(=O)O)ccc1Cl [14-3]
Cc1cccc(N(C)C(=O)c2ccc(Cl)c(-n3c(C)cc(C(F)(F)F)nc3=O)c2)c1C [30-14]
CNCCOc1cc(Cl)c(-c2cnc(C(F)(F)F)cc2C#N)cc1C(=O)N(C)c1ccccc1OC [42-17]
Cc1cc(C#N)ncc1-c1cc(C(=O)N(C)c2c(C)cccc2C)c(OCCCCO)cc1Cl [21-5]
COC(=O)CCCOc1cccc(C)c1N(C)C(=O)c1ccc(Cl)c(-c2cnc(C(F)(F)F)cc2C#N)c1 [3-11]
COc1cc(Cl)ccc1N(C)C(=O)c1cc(-c2cnc(C(F)(F)F)cc2C#N)c(Cl)cc1OCCCC(=O)O [34-2]
Cc1cc(Cl)ncc1-c1cc(C(=O)N(C)c2ccccc2F)ccc1Cl [2-36]
COc1cccc(C)c1N(C)C(=O)c1cc(-c2cnc(C(F)(F)F)cc2C#N)c(Cl)cc1OCCCO [21-8]
COc1cccc(C)c1N(C)C(=O)c1cc(-c2cnc(C#N)cc2C)c(Cl)cc1OCCCC(=O)O [22-2]
COC(=O)CCCOc1cccc(C)c1N(C)C(=O)c1ccc(Cl)c(-c2cnc(Cl)cc2C)c1 [3-5]
COc1cccc(CN(C)C(=O)c2cc(-c3cnc(C(F)(F)F)cc3C#N)c(Cl)cc2OC)c1 [39-18]
COc1ccccc1N(C)C(=O)c1cc(-c2cnc(C(F)(F)F)cc2C#N)c(Cl)cc1OCCNC(=O)C(F)(F)F [47-4]
COc1cc(Cl)c(-c2cnc(C(F)(F)F)cc2C#N)cc1C(=O)N(C)c1ccccc1OCC(F)(F)F [39-9]
Cc1cc(Cl)ncc1-c1cc(C(=O)N(C)c2ccccc2OCCCC(=O)O)ccc1Cl [4-2]
Cc1cc(Cl)cnc1-c1cc(C(=O)N(C)c2cccc(C)c2C)ccc1Cl [2-71]
COc1ccccc1N(C)C(=O)c1ccc(Cl)c(-c2ccc(Cl)cc2Cl)c1 [2-54]
Cc1cc(Cl)c(-c2cc(C(=O)N(C)c3ccccc3C)ccc2Cl)cn1 [2-16]
Cc1cc(C#N)ncc1-c1cc(C(=O)N(C)c2ccccc2OCCC(=O)O)ccc1Cl [11-1, 3-(2-{[4-Chloro-3-(6-cyano-4-methyl-pyridin-3-yl)-benzoyl]-methyl-amino}-phenoxy)-propionic acid]
CN(C(=O)c1ccc(Cl)c(-c2nc3c(F)c(F)c(F)c(F)c3cc2C#N)c1)c1ccccc1OCCCC(=O)O [33-3]
COc1cccc(F)c1N(C)C(=O)c1cc(-c2cnc(C(F)(F)F)cc2C#N)c(Cl)cc1OCCCC(=O)O [34-26]
Cc1cc(C(F)(F)F)ncc1-c1cc(C(=O)N(C)c2ccccc2CCCC(=O)O)ccc1Cl [14-2]
COCc1cc(Cl)ccc1N(C)C(=O)c1cc(-c2cnc(C(F)(F)F)cc2C#N)c(Cl)cc1OCCCC(=O)O [34-9]
COc1cc(Cl)c(-c2cnc(C(F)(F)F)cc2C#N)cc1C(=O)N(C)c1c(F)cccc1OC [39-4]
COC(=O)c1ccccc1N(C)C(=O)c1ccc(Cl)c(-c2ncc(Cl)cc2C)c1 [2-72]
Cc1cc(C(F)(F)F)ncc1-c1cc(C(=O)N(C)c2ccccc2OCCC(=O)O)ccc1Cl [11-3]
CC(C)CCN(C)C(=O)c1cc(-c2cnc(C(F)(F)F)cc2C#N)c(Cl)cc1OCCCC(=O)O [34-23]
COc1cccc(N(C)C(=O)c2cc(-c3cnc(C(F)(F)F)cc3C#N)c(Cl)cc2OCCCC(=O)O)n1 [34-19]
Cc1cc(Cl)cnc1-c1cc(C(=O)N(C)c2ccccc2F)ccc1Cl [2-62]
COc1ccccc1N(C)C(=O)c1ccc(Cl)c(-c2cnc(C)cc2Cl)c1 [2-8]
Cc1cccc(OCCCC(=O)O)c1N(C)C(=O)c1ccc(Cl)c(-c2nc3ccccc3cc2C#N)c1 [5-4]
COc1ccccc1N(C)C(=O)c1cc(-c2cnc(C(F)(F)F)cc2C#N)c(Cl)cc1OCCCC(=O)OC(C)OC(=O)OC1CCCCC1 (stereo not shown) [37-3, 4-{5-chloro-4-(4-cyano-6-trifluoromethyl-pyridin-3-yl)-2-[(2-methoxy-phenyl)-methyl-carbamoyl]-phenoxy}-butyric acid 1-cyclohexyloxycarbonyloxy-ethyl ester]
Cc1cnc(-c2cc(C(=O)N(C)c3c(C)cccc3C)ccc2Cl)c(Cl)c1 [2-64]
Cc1cc(Cl)c(-c2cc(C(=O)N(C)c3cccc(C)c3C)ccc2Cl)c(C)n1 [2-21]
COc1ccccc1N(C)C(=O)c1cc(-c2cnc(C(F)(F)F)cc2C#N)c(Cl)cc1OCCNS(C)(=O)=O [48-1, 4-Chloro-5-(4-cyano-6-trifluoromethyl-pyridin-3-yl)-2-(2-methanesulfonylamino-ethoxy)-N-(2-methoxy-phenyl)-N-methyl-benzamide]
COc1cccc(C)c1N(C)C(=O)c1ccc(Cl)c(-c2cnc(C#N)cc2C)c1 [2-34]
Cc1cc(Br)ncc1-c1cc(C(=O)N(C)c2ccccc2F)ccc1Cl [2-39]
COc1ccccc1N(C)C(=O)c1ccc(Cl)c(-c2ncc(C)cc2C)c1 [2-60]
CN(C(=O)c1ccc(Cl)c(-c2cnc(C(F)(F)F)cc2C#N)c1)c1ccccc1OCCNC(=O)NS(C)(=O)=O [41-1, 4-Chloro-3-(4-cyano-6-trifluoromethyl-pyridin-3-yl)-N-{2-[2-(3-methylsulfonyl-ureido)-ethoxy]-phenyl}-N-methyl-benzamide]
CN(C(=O)c1ccc(Cl)c(-c2cnc(C(F)(F)F)cc2C#N)c1)c1ccccc1OCCC(=O)NCCN [53-1, N-{2-[2-(2-Amino-ethylcarbamoyl)-ethoxy]-phenyl}-4-chloro-3-(4-cyano-6-trifluoromethyl-pyridin-3-yl)-N-methylbenzamide]
CN(C(=O)c1ccc(Cl)c(-c2ccc(Cl)cc2C#N)c1)c1ccccc1OCCCC(=O)O [5-6]
CN(C(=O)c1ccc(Cl)c(-c2cnc(C(F)(F)F)cc2C#N)c1)c1ccccc1OCCC(=O)OCOC(=O)C(C)(C)C [36-1, 2,2-Dimethyl-propionic acid 3-(2-{[4-chloro-3-(4-cyano-6-trifluoromethyl-pyridin-3-yl)-benzoyl]-methyl-amino}-phenoxy)-propionyloxymethyl ester]
Cc1cc(C(F)(F)F)nc(=O)n1-c1cc(C(=O)N(C)c2ccccc2F)ccc1Cl [30-16]
COc1ccccc1N(C)C(=O)c1ccc(Cl)c(-c2nc3ccccc3cc2C=O)c1 [2-48]
COc1ccccc1N(C)C(=O)c1ccc(Cl)c(-c2c(Cl)cc(Cl)c[n+]2[O-])c1 [27-1, 4-Chloro-3-(3,5-dichloro-1-oxy-pyridin-2-yl)-N-(2-methoxy-phenyl)-N-methyl-benzamide]
COc1ccccc1N(C)C(=O)c1ccc(Cl)c(-c2nc3ccccc3cc2C#N)c1 [2-49]
Cc1cccc(C)c1N(C)C(=O)c1cc(-c2nc3ccccc3cc2C#N)c(Cl)cc1OCCCC(=O)O [22-6]
CN(C(=O)c1ccc(Cl)c(-c2nc3ccccc3cc2C#N)c1)c1ccccc1OCCCO [10-2, 4-chloro-3-(3-cyano-quinolin-2-yl)-N-[2-(3-hydroxy-propoxy)-phenyl]-N-methyl-benzamide]
COC(=O)c1ccccc1N(C)C(=O)c1cc(-c2cnc(C(F)(F)F)cc2C#N)c(Cl)cc1OC [39-2]
COCc1ccccc1N(C)C(=O)c1cc(-c2cnc(C(F)(F)F)cc2C#N)c(Cl)cc1OCCCC(=O)O [34-5]
COc1ccccc1N(C)C(=O)c1ccc(Cl)c(-c2ncc(Cl)cc2Cl)c1 [19-2, 4-chloro-3-(3,5-dichloro-pyridin-2-yl)-N-(2-methoxy-phenyl)-N-methyl-benzamide]
Cc1cccnc1N(C)C(=O)c1cc(-c2cnc(C(F)(F)F)cc2C#N)c(Cl)cc1OCCCC(=O)O [34-20]
